Laboratory results published in ChEMBL document CHEMBL5058649, “Data for DCP probe BAY 1816032” (2022).
Activity calls are given as the source filed them. The rule behind the calls is not given here.

What was measured:
[1] = molecular target: Ephrin type-B receptor 4 (Homo sapiens) (UniProt P54760); test: EPHB4 DiscoveRx kinase panel; settings: Compound concentration 1.0 uM
[2] = molecular target: Focal adhesion kinase 1 (Homo sapiens) (UniProt Q05397); test: FAK DiscoveRx kinase panel; settings: Compound concentration 1.0 uM
[3] = molecular target: Voltage-dependent N-type calcium channel subunit alpha-1B (Homo sapiens) (UniProt Q00975); test: Inhibition of Calcium Channel N-Type at 10 µM in the Eurofins-Panlabs radioligand binding assay (Eurofins_assay_216000); settings: Rattus norvegicus; Compound concentration 10.0 uM
[4] = molecular target: 5-hydroxytryptamine receptor 3A (Homo sapiens) (UniProt P46098); settings: Compound concentration 10.0 uM
[5] = molecular target: Androgen receptor (Homo sapiens) (UniProt P10275); settings: Compound concentration 10.0 uM
[6] = molecular target: Calcium/calmodulin-dependent protein kinase kinase 1 (Homo sapiens) (UniProt Q8N5S9); test: CAMKK1 DiscoveRx kinase panel; settings: Compound concentration 1.0 uM
[7] = molecular target: D(2) dopamine receptor (Homo sapiens) (UniProt P14416); settings: Compound concentration 10.0 uM
[8] = molecular target: G protein-coupled receptor kinase 4 (Homo sapiens) (UniProt P32298); test: GRK4 DiscoveRx kinase panel; settings: Compound concentration 1.0 uM
Homo sapiens = organism: Homo sapiens; test: Glutamate, Metabotropic, mGlu5 Eurofins-Panlabs radioligand binding assay; settings: Compound concentration 10.0 uM
[9] = molecular target: Dual specificity mitogen-activated protein kinase kinase 5 (Homo sapiens) (UniProt Q13163); test: MEK5 DiscoveRx kinase panel; settings: Compound concentration 1.0 uM
[10] = molecular target: Mitogen-activated protein kinase 9 (Homo sapiens) (UniProt P45984); test: JNK2 DiscoveRx kinase panel; settings: Compound concentration 1.0 uM
[11] = molecular target: Glutamate NMDA receptor (Rattus norvegicus) (UniProt P35439+Q00959+Q00960+Q00961+Q62645+Q8VHN2+Q9R1M7); settings: Compound concentration 10.0 uM
[12] = molecular target: Serine/threonine-protein kinase ULK3 (Homo sapiens) (UniProt Q6PHR2); test: ULK3 DiscoveRx kinase panel; settings: Compound concentration 1.0 uM
[13] = molecular target: Casein kinase II subunit alpha' (Homo sapiens) (UniProt P19784); test: CSNK2A2 DiscoveRx kinase panel; settings: Compound concentration 1.0 uM
[14] = molecular target: Aurora kinase C (Homo sapiens) (UniProt Q9UQB9); test: AURKC DiscoveRx kinase panel; settings: Compound concentration 1.0 uM
[15] = molecular target: Serine/threonine-protein kinase 16 (Homo sapiens) (UniProt O75716); test: STK16 DiscoveRx kinase panel; settings: Compound concentration 1.0 uM
[16] = molecular target: Serine/threonine-protein kinase PLK3 (Homo sapiens) (UniProt Q9H4B4); test: PLK3 DiscoveRx kinase panel; settings: Compound concentration 1.0 uM
[17] = molecular target: T1, Mitotic checkpoint serine/threonine-protein kinase BUB1 (Homo sapiens, UniProt O43683); test: Abrogation of histone H2A-Thr120 phosphorylation
Target sequence in this assay (O43683 whole entry): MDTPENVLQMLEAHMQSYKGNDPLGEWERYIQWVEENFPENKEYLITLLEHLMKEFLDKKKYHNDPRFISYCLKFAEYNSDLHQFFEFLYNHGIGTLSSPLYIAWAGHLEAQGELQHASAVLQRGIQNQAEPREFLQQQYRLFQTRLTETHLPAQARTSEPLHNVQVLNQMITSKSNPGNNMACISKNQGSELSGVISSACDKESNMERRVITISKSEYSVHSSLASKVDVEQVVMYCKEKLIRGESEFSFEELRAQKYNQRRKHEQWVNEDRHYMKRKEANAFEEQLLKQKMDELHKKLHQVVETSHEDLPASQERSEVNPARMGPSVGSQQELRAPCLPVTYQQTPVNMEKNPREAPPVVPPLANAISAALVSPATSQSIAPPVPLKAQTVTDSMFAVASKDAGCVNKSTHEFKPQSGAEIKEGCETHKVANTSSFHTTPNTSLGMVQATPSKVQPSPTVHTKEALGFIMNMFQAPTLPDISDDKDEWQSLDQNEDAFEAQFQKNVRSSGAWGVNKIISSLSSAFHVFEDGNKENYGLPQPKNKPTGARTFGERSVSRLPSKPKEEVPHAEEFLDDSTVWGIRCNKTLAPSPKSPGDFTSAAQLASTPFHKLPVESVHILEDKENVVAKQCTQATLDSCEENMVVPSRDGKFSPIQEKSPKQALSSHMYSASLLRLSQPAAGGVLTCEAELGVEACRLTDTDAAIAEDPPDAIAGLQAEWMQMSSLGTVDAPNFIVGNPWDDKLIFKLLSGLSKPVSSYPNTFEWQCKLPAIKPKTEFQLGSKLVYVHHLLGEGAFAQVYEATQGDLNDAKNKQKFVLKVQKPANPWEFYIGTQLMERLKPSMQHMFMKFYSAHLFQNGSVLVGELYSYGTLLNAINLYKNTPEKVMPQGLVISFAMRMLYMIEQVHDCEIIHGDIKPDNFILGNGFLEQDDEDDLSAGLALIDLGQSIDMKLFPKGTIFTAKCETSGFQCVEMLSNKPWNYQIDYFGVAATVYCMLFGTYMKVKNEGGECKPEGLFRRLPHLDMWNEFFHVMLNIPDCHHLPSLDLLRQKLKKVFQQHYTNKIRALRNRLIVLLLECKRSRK

[18] = molecular target: SRSF protein kinase 2 (Homo sapiens) (UniProt P78362); test: SRPK2 DiscoveRx kinase panel; settings: Compound concentration 1.0 uM
[19] = molecular target: Cyclin-dependent kinase 18 (Homo sapiens) (UniProt Q07002); test: PCTK3 DiscoveRx kinase panel; settings: Compound concentration 1.0 uM
[20] = molecular target: 5-hydroxytryptamine receptor 7 (Homo sapiens, UniProt P34969); test: GPCRScan assay: inhibition of 5-HT7A; parameters: radioligand conc. used [nm] 5.0 – 6.0, parental cells Stable HEK
[21] = molecular target: T1, Mitotic checkpoint serine/threonine-protein kinase BUB1; test: BUB1 DiscoveRx kinase panel
[22] = molecular target: Adenosine receptor A1 (Homo sapiens) (UniProt P30542); settings: Compound concentration 10.0 uM
[23] = molecular target: B2 bradykinin receptor (Homo sapiens) (UniProt P30411); test: Bradykinin B2 Eurofins-Panlabs radioligand binding assay; settings: Compound concentration 10.0 uM
[24] = molecular target: Cyclin-dependent kinase 13 (Homo sapiens) (UniProt Q14004); test: CDC2L5 DiscoveRx kinase panel; settings: Compound concentration 1.0 uM
[25] = molecular target: Hepatocyte growth factor receptor (Homo sapiens) (UniProt P08581); test: MET DiscoveRx kinase panel; settings: Compound concentration 1.0 uM
[26] = molecular target: Gastrin/cholecystokinin type B receptor (Homo sapiens) (UniProt P32239); test: Cholecystokinin CCK2 (CCKB) Eurofins-Panlabs radioligand binding assay; settings: Compound concentration 10.0 uM
[27] = molecular target: Serine/threonine-protein kinase Sgk3 (Homo sapiens) (UniProt Q96BR1); test: SGK3 DiscoveRx kinase panel; settings: Compound concentration 1.0 uM
[28] = molecular target: Mitogen-activated protein kinase kinase kinase 11 (Homo sapiens) (UniProt Q16584); test: MLK3 DiscoveRx kinase panel; settings: Compound concentration 1.0 uM
[29] = molecular target: Cannabinoid receptor 1 (Homo sapiens) (UniProt P21554); settings: Compound concentration 10.0 uM
[30] = molecular target: Serine/threonine-protein kinase ULK1 (Homo sapiens) (UniProt O75385); test: ULK1 DiscoveRx kinase panel; settings: Compound concentration 1.0 uM
[31] = molecular target: Tyrosine-protein kinase receptor UFO (Homo sapiens) (UniProt P30530); test: AXL DiscoveRx kinase panel; settings: Compound concentration 1.0 uM
[32] = tested on: eIF-2-alpha kinase GCN2 (Homo sapiens), Q9P2K8 [S808G]; test: GCN2(Kin.Dom.2,S808G) DiscoveRx kinase panel; settings: Compound concentration 1.0 uM
[33] = molecular target: Serine/threonine-protein kinase/endoribonuclease IRE1 (Homo sapiens) (UniProt O75460); test: ERN1 DiscoveRx kinase panel; settings: Compound concentration 1.0 uM
[34] = molecular target: Phosphatidylinositol 5-phosphate 4-kinase type-2 beta (Homo sapiens) (UniProt P78356); test: PIP5K2B DiscoveRx kinase panel; settings: Compound concentration 1.0 uM
[35] = molecular target: D(2) dopamine receptor (Homo sapiens) (UniProt P14416); settings: Compound concentration 10.0 uM; remark: listed apart in the source
[36] = molecular target: Phosphatidylinositol 3-kinase C2 domain-containing subunit gamma (Homo sapiens) (UniProt O75747); test: PIK3C2G DiscoveRx kinase panel; settings: Compound concentration 1.0 uM
[37] = molecular target: Dual specificity tyrosine-phosphorylation-regulated kinase 1A (Homo sapiens) (UniProt Q13627); test: DYRK1A DiscoveRx kinase panel; settings: Compound concentration 1.0 uM
Rattus norvegicus = organism: Rattus norvegicus; test: Glutamate, NMDA, Polyamine Eurofins-Panlabs radioligand binding assay; assay type: protein-complex assay; parameters: ligand concentration 2 nM; settings: Compound concentration 10.0 uM
[38] = molecular target: Serine/threonine-protein kinase LATS1 (Homo sapiens) (UniProt O95835); test: LATS1 DiscoveRx kinase panel; settings: Compound concentration 1.0 uM
[39] = molecular target: Phosphorylase b kinase gamma catalytic chain, skeletal muscle/heart isoform (Homo sapiens) (UniProt Q16816); test: PHKG1 DiscoveRx kinase panel; settings: Compound concentration 1.0 uM
[40] = molecular target: Tyrosine-protein kinase Tec (Homo sapiens) (UniProt P42680); test: TEC DiscoveRx kinase panel; settings: Compound concentration 1.0 uM
[41] = molecular target: Serine/threonine-protein kinase VRK2 (Homo sapiens) (UniProt Q86Y07); test: VRK2 DiscoveRx kinase panel; settings: Compound concentration 1.0 uM
[42] = molecular target: Serine/threonine-protein kinase Chk2 (Homo sapiens) (UniProt O96017); test: CHEK2 DiscoveRx kinase panel; settings: Compound concentration 1.0 uM
[43] = molecular target: Mu-type opioid receptor (Homo sapiens) (UniProt P35372); settings: Compound concentration 10.0 uM
[44] = molecular target: TRAF2 and NCK-interacting protein kinase (Homo sapiens) (UniProt Q9UKE5); test: TNIK DiscoveRx kinase panel; settings: Compound concentration 1.0 uM

Chain of 5-hydroxytryptamine receptor 7 (P34969 whole entry): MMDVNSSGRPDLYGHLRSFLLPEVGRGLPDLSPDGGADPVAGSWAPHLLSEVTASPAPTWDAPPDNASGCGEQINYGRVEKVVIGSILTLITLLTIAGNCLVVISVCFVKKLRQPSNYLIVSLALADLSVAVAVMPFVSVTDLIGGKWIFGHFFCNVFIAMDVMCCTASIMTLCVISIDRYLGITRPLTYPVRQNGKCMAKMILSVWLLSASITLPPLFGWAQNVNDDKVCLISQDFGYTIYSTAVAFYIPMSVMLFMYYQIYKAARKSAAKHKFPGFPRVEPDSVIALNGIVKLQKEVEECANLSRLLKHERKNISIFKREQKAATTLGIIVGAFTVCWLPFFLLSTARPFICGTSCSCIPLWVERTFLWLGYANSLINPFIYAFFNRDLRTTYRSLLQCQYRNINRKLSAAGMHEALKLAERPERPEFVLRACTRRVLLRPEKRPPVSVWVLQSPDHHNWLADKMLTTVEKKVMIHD
Chain of D(2) dopamine receptor (Homo sapiens) (P14416 whole entry, the tested form may be a part): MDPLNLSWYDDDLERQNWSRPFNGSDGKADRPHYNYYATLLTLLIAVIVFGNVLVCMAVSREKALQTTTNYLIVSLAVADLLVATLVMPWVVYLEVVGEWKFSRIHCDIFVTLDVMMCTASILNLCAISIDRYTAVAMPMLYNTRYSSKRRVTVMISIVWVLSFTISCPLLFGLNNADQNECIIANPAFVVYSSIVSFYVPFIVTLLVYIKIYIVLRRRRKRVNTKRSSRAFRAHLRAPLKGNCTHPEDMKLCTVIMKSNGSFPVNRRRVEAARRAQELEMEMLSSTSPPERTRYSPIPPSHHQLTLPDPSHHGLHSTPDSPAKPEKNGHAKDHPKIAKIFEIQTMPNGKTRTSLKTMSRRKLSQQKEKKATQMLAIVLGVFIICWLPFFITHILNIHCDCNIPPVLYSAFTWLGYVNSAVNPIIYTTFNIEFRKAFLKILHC
Chain of Serine/threonine-protein kinase VRK2 (Homo sapiens) (Q86Y07 whole entry): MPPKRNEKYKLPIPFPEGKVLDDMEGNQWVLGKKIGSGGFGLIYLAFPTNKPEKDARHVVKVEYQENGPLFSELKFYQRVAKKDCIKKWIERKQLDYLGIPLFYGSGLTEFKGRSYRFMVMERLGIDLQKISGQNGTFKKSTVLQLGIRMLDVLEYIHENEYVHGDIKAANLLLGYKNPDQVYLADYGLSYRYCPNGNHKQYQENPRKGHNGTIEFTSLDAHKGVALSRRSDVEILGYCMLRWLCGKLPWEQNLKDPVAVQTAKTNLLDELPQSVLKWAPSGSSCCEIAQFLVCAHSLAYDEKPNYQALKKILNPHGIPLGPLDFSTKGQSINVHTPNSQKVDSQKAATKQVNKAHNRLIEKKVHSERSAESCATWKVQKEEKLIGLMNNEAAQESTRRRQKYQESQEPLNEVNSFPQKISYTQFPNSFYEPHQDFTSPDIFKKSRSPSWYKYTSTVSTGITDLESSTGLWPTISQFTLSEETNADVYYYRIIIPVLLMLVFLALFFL
Chain of Mu-type opioid receptor (Homo sapiens) (P35372 whole entry): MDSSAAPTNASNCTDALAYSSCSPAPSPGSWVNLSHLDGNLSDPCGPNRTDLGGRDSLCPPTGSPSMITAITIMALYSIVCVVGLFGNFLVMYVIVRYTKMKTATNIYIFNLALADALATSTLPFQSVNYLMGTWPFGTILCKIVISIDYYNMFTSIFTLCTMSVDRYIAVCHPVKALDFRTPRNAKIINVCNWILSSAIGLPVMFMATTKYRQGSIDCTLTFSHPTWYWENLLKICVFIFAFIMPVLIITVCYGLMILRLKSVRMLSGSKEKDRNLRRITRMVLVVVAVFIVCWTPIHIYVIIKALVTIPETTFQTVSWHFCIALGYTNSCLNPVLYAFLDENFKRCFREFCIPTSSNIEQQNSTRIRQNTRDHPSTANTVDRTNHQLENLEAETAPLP
Chain of Phosphorylase b kinase gamma catalytic chain, skeletal muscle/heart isoform (Homo sapiens) (Q16816 whole entry, looked up, canonical isoform): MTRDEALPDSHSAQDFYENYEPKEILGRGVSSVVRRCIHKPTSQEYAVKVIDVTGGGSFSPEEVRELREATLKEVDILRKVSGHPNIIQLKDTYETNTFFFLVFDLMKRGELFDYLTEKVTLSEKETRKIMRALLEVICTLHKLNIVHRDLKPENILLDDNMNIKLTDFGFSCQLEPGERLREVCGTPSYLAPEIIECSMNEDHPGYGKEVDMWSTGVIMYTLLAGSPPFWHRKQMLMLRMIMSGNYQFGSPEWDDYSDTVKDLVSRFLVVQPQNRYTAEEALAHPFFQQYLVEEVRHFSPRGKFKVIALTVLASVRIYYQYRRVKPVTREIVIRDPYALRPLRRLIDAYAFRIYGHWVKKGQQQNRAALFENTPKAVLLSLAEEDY
Chain of Phosphatidylinositol 5-phosphate 4-kinase type-2 beta (Homo sapiens) (P78356 whole entry): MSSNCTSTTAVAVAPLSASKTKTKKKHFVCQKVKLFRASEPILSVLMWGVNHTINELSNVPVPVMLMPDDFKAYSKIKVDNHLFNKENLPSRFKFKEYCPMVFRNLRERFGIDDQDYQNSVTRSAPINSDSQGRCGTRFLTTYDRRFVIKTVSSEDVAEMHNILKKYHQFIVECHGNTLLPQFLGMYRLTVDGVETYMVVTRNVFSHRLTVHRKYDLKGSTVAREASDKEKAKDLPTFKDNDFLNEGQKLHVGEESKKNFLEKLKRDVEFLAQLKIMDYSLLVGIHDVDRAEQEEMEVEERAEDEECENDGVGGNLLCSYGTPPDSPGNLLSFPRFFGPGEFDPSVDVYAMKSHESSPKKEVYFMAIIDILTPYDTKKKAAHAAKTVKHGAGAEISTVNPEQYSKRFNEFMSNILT
Chain of Gastrin/cholecystokinin type B receptor (Homo sapiens) (P32239 whole entry): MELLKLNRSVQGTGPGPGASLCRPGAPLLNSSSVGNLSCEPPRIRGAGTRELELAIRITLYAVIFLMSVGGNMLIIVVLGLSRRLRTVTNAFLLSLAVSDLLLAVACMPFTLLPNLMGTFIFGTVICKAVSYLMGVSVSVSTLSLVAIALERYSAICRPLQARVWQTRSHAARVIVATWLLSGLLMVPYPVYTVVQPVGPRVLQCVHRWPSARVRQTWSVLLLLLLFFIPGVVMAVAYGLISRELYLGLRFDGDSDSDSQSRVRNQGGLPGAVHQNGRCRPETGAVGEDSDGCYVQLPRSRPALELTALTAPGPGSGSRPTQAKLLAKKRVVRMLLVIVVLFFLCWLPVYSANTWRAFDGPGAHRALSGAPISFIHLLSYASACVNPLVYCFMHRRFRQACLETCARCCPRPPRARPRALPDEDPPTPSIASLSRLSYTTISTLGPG
Chain of 5-hydroxytryptamine receptor 3A (Homo sapiens) (P46098 whole entry): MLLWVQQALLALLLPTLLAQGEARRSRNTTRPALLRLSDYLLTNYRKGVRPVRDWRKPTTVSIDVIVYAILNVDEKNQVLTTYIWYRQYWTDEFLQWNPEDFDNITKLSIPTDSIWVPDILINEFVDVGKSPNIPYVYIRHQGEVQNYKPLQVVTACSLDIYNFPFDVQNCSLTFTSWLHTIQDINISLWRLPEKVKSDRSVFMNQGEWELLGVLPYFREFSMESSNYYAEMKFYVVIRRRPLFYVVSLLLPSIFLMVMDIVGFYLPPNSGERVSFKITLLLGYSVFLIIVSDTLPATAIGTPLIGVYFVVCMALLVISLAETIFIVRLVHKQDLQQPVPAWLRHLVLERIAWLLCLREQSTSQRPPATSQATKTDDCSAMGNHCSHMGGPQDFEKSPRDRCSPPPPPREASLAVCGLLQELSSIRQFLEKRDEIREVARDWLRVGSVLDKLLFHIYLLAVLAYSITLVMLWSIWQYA
Chain of Serine/threonine-protein kinase 16 (Homo sapiens) (O75716 whole entry): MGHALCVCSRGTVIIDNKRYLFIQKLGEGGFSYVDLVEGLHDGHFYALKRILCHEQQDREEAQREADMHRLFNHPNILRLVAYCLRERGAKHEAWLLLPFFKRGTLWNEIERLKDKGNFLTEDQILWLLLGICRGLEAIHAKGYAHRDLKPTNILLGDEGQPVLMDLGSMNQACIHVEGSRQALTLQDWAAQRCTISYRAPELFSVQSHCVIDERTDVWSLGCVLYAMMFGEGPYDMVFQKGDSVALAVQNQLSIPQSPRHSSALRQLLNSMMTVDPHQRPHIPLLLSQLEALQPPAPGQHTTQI

COc1cnccc1Nc1nc(-c2nn(Cc3c(F)cc(OCCO)cc3F)c3ccccc23)ncc1OC
residual activity [1]: 93%
residual activity [2]: 88%
inhibition [3]: 10%
inhibition [4]: -8.58%
inhibition [5]: 9%
residual activity [6]: 100%
inhibition [7]: 4%
residual activity [8]: 79%
inhibition (Homo sapiens): 17%
residual activity [9]: 71%
residual activity [10]: 39%
inhibition [11]: -2%
residual activity [12]: 100%
residual activity [13]: 48%
residual activity [14]: 100%
residual activity [15]: 65%
residual activity [16]: 100%
IC50 [17]: 29 nM (active)
residual activity [18]: 77%
residual activity [19]: 76%
Ki [20]: > 10000 nM
pKi [20]: < 5
Kd [21]: 3.3 nM
residual activity ([21]; Compound concentration 1.0 uM): 0.05%
inhibition [22]: 9%
inhibition [23]: 0%
residual activity [24]: 100%
residual activity [25]: 80%
inhibition [26]: 1%
residual activity [27]: 99%
residual activity [28]: 100%
inhibition [29]: -6%
residual activity [30]: 90%
residual activity [31]: 47%
residual activity [32]: 91%
residual activity [33]: 100%
residual activity [34]: 91%
inhibition [35]: 17%
residual activity [36]: 98%
residual activity [37]: 96%
inhibition (Rattus norvegicus): 0%
residual activity [38]: 95%
residual activity [39]: 100%
residual activity [40]: 100%
residual activity [41]: 94%
residual activity [42]: 100%
inhibition [43]: -4.25%
residual activity [44]: 100%
